Twelve compounds from publication PMC8587871, “Novel Thiosemicarbazone Derivatives: In Vitro and In Silico Evaluation as Potential MAO-B Inhibitors” (Molecules, 2021) can be followed below.

One data set has as its target T1, hMAO-A (Homo sapiens, UniProt P21397).
T1 sequence (P21397 1-527): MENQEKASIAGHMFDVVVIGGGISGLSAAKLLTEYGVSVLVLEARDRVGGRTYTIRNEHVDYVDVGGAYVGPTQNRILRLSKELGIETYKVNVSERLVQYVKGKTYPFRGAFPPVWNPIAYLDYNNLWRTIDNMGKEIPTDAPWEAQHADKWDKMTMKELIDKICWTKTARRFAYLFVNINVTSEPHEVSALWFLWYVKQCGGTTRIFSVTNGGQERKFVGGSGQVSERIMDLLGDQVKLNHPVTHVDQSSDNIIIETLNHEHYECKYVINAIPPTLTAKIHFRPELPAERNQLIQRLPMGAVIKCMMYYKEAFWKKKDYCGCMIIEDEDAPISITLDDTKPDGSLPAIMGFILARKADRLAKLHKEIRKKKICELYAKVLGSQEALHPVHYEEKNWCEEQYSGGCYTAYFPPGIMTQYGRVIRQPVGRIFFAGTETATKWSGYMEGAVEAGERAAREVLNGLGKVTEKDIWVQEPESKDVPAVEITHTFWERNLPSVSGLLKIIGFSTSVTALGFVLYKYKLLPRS
Briefly: In vitro fluorometric MAO-A inhibition assay. The data set is classed as biochemical. To be noted: for inhibition at 1000 µM: 10^−3 M; for inhibition at 100 µM: 10^−4 M. The procedure: (§1) The inhibition power on MAO isoenzymes of the synthesized compounds was evaluated by using the in vitro fluorometric method declared previously by our research group.
(§2) The in vitro MAO inhibition test was performed using the available fluorometric method, and the percentages and IC50 values of obtained compounds were calculated as previously described by our research group.

In data set [1] the target is T2, hMAO-B (Homo sapiens, UniProt P27338).
T2 sequence (P27338 1-520): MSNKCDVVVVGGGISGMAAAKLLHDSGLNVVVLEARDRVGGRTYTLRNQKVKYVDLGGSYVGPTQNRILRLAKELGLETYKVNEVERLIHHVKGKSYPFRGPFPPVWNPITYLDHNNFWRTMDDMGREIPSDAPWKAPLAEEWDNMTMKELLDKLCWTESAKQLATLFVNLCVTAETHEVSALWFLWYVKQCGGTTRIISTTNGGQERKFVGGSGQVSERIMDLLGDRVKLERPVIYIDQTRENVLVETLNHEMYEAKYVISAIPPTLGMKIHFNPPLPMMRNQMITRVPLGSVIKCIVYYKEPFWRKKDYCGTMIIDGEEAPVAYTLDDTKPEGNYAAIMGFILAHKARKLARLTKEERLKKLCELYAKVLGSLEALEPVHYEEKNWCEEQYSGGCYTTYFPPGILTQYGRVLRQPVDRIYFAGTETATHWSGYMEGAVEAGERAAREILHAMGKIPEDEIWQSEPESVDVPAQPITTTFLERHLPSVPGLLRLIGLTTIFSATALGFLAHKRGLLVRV
Briefly: In vitro fluorometric MAO-B inhibition assay. It is filed as biochemical. As to conditions: for inhibition at 1000 µM: 10^−3 M; for inhibition at 100 µM: 10^−4 M; for inhibition at 10 µM: 10^−5 M; for inhibition at 1 µM: 10^−6 M; for inhibition at 0.1 µM: 10^−7 M; for inhibition at 0.01 µM: 10^−8 M; for inhibition at 0.001 µM: 10^−9 M; for IC50: read-out: IC50 against MAO-B. The procedure:
as §1, §2

Data set [2] concerns the target T2, hMAO-B. Briefly: Enzyme kinetic study (Lineweaver–Burk and secondary plots) of hMAO-B inhibition. It is filed as biochemical. To be noted: substrate tyramine; for Type of hMAO-B inhibition: Lineweaver–Burk plots; for Ki: secondary plots, read-out: Ki (steady-state inhibition constant) for hMAO-B. From the text: Enzyme kinetic studies help to determine the inhibitory character of the relevant compound on the enzyme as irreversible or reversible inhibition, and to evaluate the nature of the inhibition of the relevant compound. The linear Lineweaver–Burk plots are the most commonly used method for this purpose. […] Enzyme kinetic assay was applied in the same way as previously mentioned. […] The rate curves of substrates were reported in the absence and presence of these compounds. In all cases, initial velocity measurements were collected at various substrate (tyramine) concentrations ranging from 20 µM to 0.625 µM. Thus, linear Lineweaver–Burk graphs of compounds 2b and 2h were formed as in Figure 4A and Figure 5A, respectively.
According to Lineweaver–Burk plots, reversible and irreversible inhibition type constitute two general categories. Mixed-type, uncompetitive, competitive, and non-competitive inhibition types are included in the reversible inhibition.
The same materials used in the MAO inhibition assay were used in this experiment. […] All processes were evaluated in quadruplicate. The results were analyzed with Microsoft Office Excel 2013 using Lineweaver–Burk diagrams. […] of the Lineweaver–Burk plots were replotted versus the inhibitors’ concentrations, and the Ki values were determined from the x-axis intercept as -Ki.

A short description of another data set: MTT cytotoxicity assay. The data set is classed as cell-based, mouse. To be noted: mouse, NIH/3T3 mouse embryonic fibroblast cells; MTT assay; read-out: IC50 against NIH/3T3 cells. The procedure: (§3) The NIH/3T3 mouse embryonic fibroblast cell line (ATCC® CRL-1658™, London, UK) was used for cytotoxicity assays. The incubation period of NIH/3T3 cells was based on the supplier’s recommendation. NIH/3T3 cells were seeded at 1 × 10^4 cells into each well of 96-well plates. MTT assay was carried out in accordance with the standards previously described.

The test system of data set [3] is NIH/3T3 mouse embryonic fibroblast cell line. Briefly: MTT cytotoxicity assay. As to conditions: for Cytotoxicity at effective concentration against MAO-B: MTT assay, NIH/3T3. The data set is classed as cell-based. How it is done: as §3
On the technique in general: Tetrazolium assays rely on reduction of a dye to a coloured formazan, in cell work by metabolically active cells.

SMILES strings stand for the structures.

As for `CCNC(=S)NN=Cc1cc2ccccc2o1` [Compound 2a, 2-(Benzofuran-2-ylmethylene)-N-ethylhydrazine-1-carbothioamide], the melting point was 179.9 to 182.1 °C. Also, at hMAO-A, testing at 1000 µM gave an inhibition of 34.1 ± 0.927% and at 100 µM the inhibition was 22.3 ± 0.824%. On hMAO-B [1], this compound gave an inhibition at 1000 µM of 74.2 ± 1.41% and an inhibition at 100 µM of 46.4 ± 0.997%.
Consider `COCCNC(=S)NN=Cc1cc2ccccc2o1` [Compound 2b, 2-(Benzofuran-2-ylmethylene)-N-(2-methoxyethyl)hydrazine-1-carbothioamide], for which the melting point lay within 147.5 to 148.8 °C. On hMAO-A, this compound yielded an inhibition at 1000 µM of 33 ± 0.955% and an inhibition at 100 µM of 28.4 ± 0.899%. For the same compound, on hMAO-B [2], the “Type of hMAO-B inhibition” value is “reversible and non-competitive”; the inhibition constant (Ki) is 35 nM. In addition, at hMAO-B [1], the inhibition at 1000 µM was 91.6 ± 1.65%, 10 µM produced 81.5 ± 1.72% inhibition, the inhibition at 1 µM was determined as 75 ± 1.63% and the inhibition at 0.1 µM was 66.4 ± 0.975%. Besides, at hMAO-B [1], at 0.01 µM the inhibition was 41.5 ± 0.856%, testing at 0.001 µM gave an inhibition of 25.8 ± 0.765% and the IC50 worked out at 42 ± 2 nM. The IC50 in the data set “MTT cytotoxicity assay” worked out at 130000 nM. The “Cytotoxicity at effective concentration against MAO-B” value in data set [3] is reported as “non-cytotoxic”. For the same compound, the IC50 in data set [3] (Mus musculus, NIH3T3, Table 3 column 1 as headed) was 0.042 ± 0.002 µM.
The compound `CCCCNC(=S)NN=Cc1cc2ccccc2o1` [Compound 2c, 2-(Benzofuran-2-ylmethylene)-N-butylhydrazine-1-carbothioamide] yielded a melting point of 120.4 to 121.2 °C. Besides, at hMAO-A, the inhibition at 1000 µM stood at 30.4 ± 0.902% and the inhibition at 100 µM amounted to 26.7 ± 0.82%. On hMAO-B [1], the inhibition at 1000 µM amounted to 76.3 ± 1.62% and the inhibition at 100 µM amounted to 43.5 ± 0.728%.
Turning to `S=C(NN=Cc1cc2ccccc2o1)NC1CCCCC1` [Compound 2d, 2-(Benzofuran-2-ylmethylene)-N-cyclohexylhydrazine-1-carbothioamide], the melting point was 191.2 to 192.9 °C. At hMAO-A, the inhibition at 1000 µM was 37.5 ± 0.897% and the inhibition at 100 µM is 20.9 ± 0.834%. At hMAO-B [1], the inhibition at 1000 µM was found to be 82.6 ± 1.32% and the inhibition at 100 µM was found to be 41.1 ± 0.956%.
Take `S=C(NN=Cc1cc2ccccc2o1)Nc1ccccc1` [Compound 2e, 2-(Benzofuran-2-ylmethylene)-N-phenylhydrazine-1-carbothioamide]: the melting point fell in the range of 205.2 to 206.8 °C. On hMAO-A, this compound returned an inhibition at 1000 µM of 36.7 ± 0.91% and an inhibition at 100 µM of 23.4 ± 0.832%. Also, at hMAO-B [1], the inhibition at 1000 µM came out at 85.5 ± 1.53% and the inhibition at 100 µM was 40.8 ± 0.827%.
The matching figures for `S=C(NN=Cc1cc2ccccc2o1)Nc1ccccc1Cl` [Compound 2f, 2-(Benzofuran-2-ylmethylene)-N-(2-chlorophenyl)hydrazine-1-carbothioamide]: 203.6 to 204.9 °C, 31.1 ± 0.994%, 24.2 ± 0.711%, 82.4 ± 1.33% and 47.4 ± 0.93%.
Compound `CCNC(=S)NN=Cc1cc2ccccc2s1` [Compound 2g, 2-(Benzo[b]thiophen-2-ylmethylene)-N-ethylhydrazine-1-carbothioamide] showed a melting point of 198.9 to 201 °C. On hMAO-A, this compound yielded an inhibition at 1000 µM of 38.9 ± 0.854% and an inhibition at 100 µM of 28.7 ± 0.803%. For the same compound, at hMAO-B [1], the inhibition at 1000 µM is 79 ± 1.7% and 100 µM produced 44.8 ± 0.758% inhibition.
For `COCCNC(=S)NN=Cc1cc2ccccc2s1` [Compound 2h, 2-(Benzo[b]thiophen-2-ylmethylene)-N-(2-methoxyethyl)hydrazine-1-carbothioamide], the melting point was in the range of 164.9 to 166.2 °C. Moreover, on hMAO-A, the inhibition at 1000 µM was determined as 36.8 ± 0.741% and the inhibition at 100 µM was found to be 21.9 ± 0.75%. Moreover, at hMAO-B [2], the “Type of hMAO-B inhibition” value was “reversible and non-competitive”; the Ki stood at 46 nM. For the same compound, on hMAO-B [1], the inhibition at 1000 µM was 90.4 ± 1.6%, the inhibition at 10 µM was 80.8 ± 1.04%, testing at 1 µM gave an inhibition of 72.2 ± 1.39% and 0.1 µM produced 65 ± 1.11% inhibition. In addition, on hMAO-B [1], the inhibition at 0.01 µM worked out at 42.8 ± 0.948%, at 0.001 µM the inhibition was 30.9 ± 0.782% and the IC50 came out at 56 ± 2 nM. The IC50 in “MTT cytotoxicity assay” turned out to be 81300 nM. For the same compound, the “Cytotoxicity at effective concentration against MAO-B” value in data set [3] is recorded as “non-cytotoxic”.
`CCCCNC(=S)NN=Cc1cc2ccccc2s1` [Compound 2i, 2-(Benzo[b]thiophen-2-ylmethylene)-N-butylhydrazine-1-carbothioamide] gave a melting point of 168.9 to 170.7 °C. At hMAO-A, this compound yielded an inhibition at 1000 µM of 35.7 ± 0.863% and an inhibition at 100 µM of 29.2 ± 0.816%. At hMAO-B [1], this compound had an inhibition at 1000 µM of 84.7 ± 1.63% and an inhibition at 100 µM of 46 ± 0.931%.
In the case of `S=C(NN=Cc1cc2ccccc2s1)NC1CCCCC1` [Compound 2j, 2-(Benzo[b]thiophen-2-ylmethylene)-N-cyclohexylhydrazine-1-carbothioamide], the melting point lay in the range of 213.7 to 215.1 °C. Also, on hMAO-A, the inhibition at 1000 µM stood at 33.7 ± 0.729% and the inhibition at 100 µM worked out at 23 ± 0.863%. On hMAO-B [1], this compound registered an inhibition at 1000 µM of 82.9 ± 1.62% and an inhibition at 100 µM of 43 ± 0.965%.
In turn, `S=C(NN=Cc1cc2ccccc2s1)Nc1ccccc1` [Compound 2k, 2-(Benzo[b]thiophen-2-ylmethylene)-N-phenylhydrazine-1-carbothioamide] came in with a melting point of 213.9 to 216 °C. Further, on hMAO-A, the inhibition at 1000 µM was 31.1 ± 0.911% and the inhibition at 100 µM is 27.9 ± 0.815%. At hMAO-B [1], this compound showed an inhibition at 1000 µM of 80.5 ± 1.48% and an inhibition at 100 µM of 46.7 ± 0.899%.
For `S=C(NN=Cc1cc2ccccc2s1)Nc1ccccc1Cl` [Compound 2l, 2-(Benzo[b]thiophen-2-ylmethylene)-N-(2-chlorophenyl)hydrazine-1-carbothioamide] the same measures were 212.6 to 214.4 °C, 36.7 ± 0.966%, 24.4 ± 0.721%, 83.6 ± 1.6% and 42.2 ± 0.763%.

In general, inhibition refers to the share of the control response that was lost under treatment. A lower inhibition goes with little suppression. A word on the melting point: it is the temperature, or range, at which the solid turns liquid. Usually Ki stands for the equilibrium dissociation constant of an inhibitor or competing ligand from its target.
